From patent publication US5607926A, “Cephalosporin antibiotics” (Microcide Pharmaceuticals, Inc., priority 1995, dated 1997)
Values after ≈ are worked out from the molar mass of the structure shown. Structures can show the parent of a compound that is named as a salt. Where two headings read alike, the source gives them in different places.

Key:
Assay type in all cases: cell-based
[1] = test system: S. aureus ATCC 25923; assay: In vitro antibacterial evaluation, MIC by agar dilution, S. aureus ATCC 25923; details: Staphylococcus aureus, ATCC25923
Experimental: The compounds of the invention were evaluated against several β-lactamresistant bacteria strains by determining the minimum inhibitory concentration (MIC, μg/ml) of each compound with respect to each strain. The MIC, the lowest concentration of antibiotic which inhibits growth of the test organism, was determined by the agar dilution method.
To determine the MIC for bacterial isolates, the test compound was incorporated in a series of two-fold dilutions into liquified Mueller-Hinton agar. Upon solidification, a number of different bacterial strains were spot inoculated with a replicating device onto the agar surface. […] The procedures used in these studies have been standardized by the National Committee for Clinical Laboratory Standards (NCCLS), as per the NCCLS publication entitled METHODS FOR DILUTION ANTIMICROBIAL SUSCEPTIBILITY TESTS (1991), which is incorporated herein by reference.
Aliquots of antimicrobial agents were prepared in phosphate buffered saline (PBS) at pH 7.2. Tween 20 or DMSO was used as a solubilizing vehicle as needed. Standard methods of vortexing, sonicating and gentle heat were used to facilitate solubilizing the test agent. Typically, the concentration of the stock solution was 10× that of the highest drug concentration tested. A 1.28 mg/mL stock solution was used with a subsequent highest working concentration of 128 μg/mL. Serial two-fold dilutions were done through ≤0.25 μg/mL. Each drug level was tested in duplicate. Two-fold drug dilutions were done in sterile 50 mL tubes with a final drug volume of 5 mL. Upon the addition of 45 mL of molten agar, a 10-fold dilution resulted. Two, 25 mL. plates were then poured into 15×150 mm square Petri plates with grids and allowed to harden.
A control plate with a reference drug, either cefotaxime, vancomycin or imipenem, was used as the positive growth control. Stock concentrations of reference antibiotics were prepared and frozen at -80° C. Upon preparation, the control plates were sealed and stored in the refrigerator for up to 1 week prior to use; however, imipenem control plates had to be prepared just prior to use. All test plates were used within 24 hours of preparation.
Satisfactory results were obtained where the inoculum contained about 10^4 colony forming units (cfu) ±0.5 logs. Starting with pure cultures of the test isolates on agar plates, a few isolated colonies were transferred to a tube of nutrient broth and allowed to grow 4-6 hours at 35°-36° C. to reach log-phase growth. Dropwise addition of the broth culture to PBS was done to match a 0.5 McFarland turbidity standard equal to 10^8 cfu/mL. This was further diluted ten-fold in PBS to reach a working inoculum concentration of 10^7 cfu/mL. When 1 μL of the working inoculum was applied to the agar surface a concentration of about 10^4 cfu per spot was obtained.
Disposable sterile 1 μL loops were used to inoculate test plates, with each isolate in a designated grid on the agar plate. An alternate method of inoculation involved the use of a replica plater, a device with 48 steel pins allowing the simultaneous inoculation of multiple isolates. After the spots had dried, the plates were incubated at 35°-36° C. for 16-20 hours. Endpoints were assessed as the minimum inhibitory concentration (MIC) of antimicrobial agent.

[2] = test system: S. aureus Col8A (Meth^S)(lac^-); assay: In vitro antibacterial evaluation, MIC by agar dilution, S. aureus Col8A; details: Staphylococcus aureus
How it was run: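 Agar dilution per NCCLS (1991): two-fold dilutions from 128 μg/mL down to ≤0.25 μg/mL in Mueller-Hinton agar, each level in duplicate. Spots of about 10^4 cfu of log-phase culture; 16-20 h at 35°-36° C. MIC in μg/ml is the lowest concentration inhibiting growth.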

[3] = test system: P. aeruginosa ATCC 27853; assay: In vitro antibacterial evaluation, MIC by agar dilution, P. aeruginosa ATCC 27853; details: Pseudomonas aeruginosa, ATCC27853, read-out: MIC
How it was run: (§1)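 Two-fold dilutions of test compound, 128 μg/mL down to ≤0.25 μg/mL, were set in Mueller-Hinton agar in duplicate and spot-inoculated with about 10^4 cfu of log-phase culture. Plates were incubated 16-20 hours at 35°-36° C, and MIC taken as the lowest concentration inhibiting growth, following NCCLS agar dilution.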

[4] = test system: E. faecalis ATCC 29212; assay: In vitro antibacterial evaluation, MIC by agar dilution, E. faecalis ATCC 29212; details: Enterococcus faecalis, ATCC29212
How it was run: as §1

[5] = test system: S. epidermidis ATCC 31432; assay: In vitro antibacterial evaluation, MIC by agar dilution, S. epidermidis ATCC 31432; details: Staphylococcus epidermidis, ATCC31432
How it was run: as §1

[6] = test system: S. haemolyticus (Meth^R); assay: In vitro antibacterial evaluation, MIC by agar dilution, S. haemolyticus; details: Staphylococcus haemolyticus, read-out: MIC
How it was run: as §1

[7] = test system: S. aureus 76 (Meth^R)(lac^+); assay: In vitro antibacterial evaluation, MIC by agar dilution, S. aureus 76; details: Staphylococcus aureus, read-out: MIC
How it was run: as §1

[8] = test system: E. faecium ATCC 35667; assay: In vitro antibacterial evaluation, MIC by agar dilution, E. faecium ATCC 35667; details: Enterococcus faecium, ATCC35667, read-out: MIC
How it was run: as §1

[9] = test system: E. coli ATCC 25922; assay: In vitro antibacterial evaluation, MIC by agar dilution, E. coli ATCC 25922; details: Escherichia coli, ATCC25922, read-out: MIC
How it was run: as §1

[10] = test system: S. aureus ATCC 29213; assay: In vitro antibacterial evaluation, MIC by agar dilution, S. aureus ATCC 29213; details: Staphylococcus aureus, ATCC29213
How it was run: as §1

[11] = E. faecalis ATCC 29212, read-out: MIC
[12] = S. aureus ATCC 25923, read-out: MIC
[13] = S. epidermidis ATCC 31432, read-out: MIC

| Compound | MIC [1] [µg/mL] | MIC [2] [µg/mL] | MIC [3] [µg/mL] | MIC [4] [µg/mL] | MIC [5] [µg/mL] | MIC [6] [µg/mL] | MIC [7] [µg/mL] | MIC [8] [µg/mL] | MIC [9] [µg/mL] | MIC [10] [µg/mL] | MIC [4, 11] [µg/mL] | MIC [1, 12] [µg/mL] | MIC [5, 13] [µg/mL] | MIC ([10]; S. aureus ATCC 29213, read-out: MIC) [µg/mL] |
| --- | --- | --- | --- | --- | --- | --- | --- | --- | --- | --- | --- | --- | --- | --- |
| O=C(Cc1ccccc1)N[C@@H]1C(=O)N2C(C(=O)O)=C(Sc3snnc3-c3ccccc3)CS[C@H]12 [Cmpd 93, (7R)-7-[(Phenylacetyl)amino]-3-(4-phenyl-1,2,3-thiadiazol-5-ylthio)-3-cephem-4-carboxylic acid] | < 0.25 | < 0.25 | > 32 | < 0.25 | < 0.25 | 8 (≈ 15.7 µM) | 8 (≈ 15.7 µM) | 0.5 (≈ 0.979 µM) | > 32 | < 0.25 |  |  |  |  |
| O=C(Cc1ccccc1)N[C@@H]1C(=O)N2C(C(=O)O)=C(Sc3ccccc3CSc3ccncc3)CS[C@H]12 [Cmpd 70] | < 0.25 | < 0.25 | > 32 |  | < 0.25 | 32 (≈ 58.2 µM) | 16 (≈ 29.1 µM) | 2 (≈ 3.64 µM) | > 32 | < 0.25 | 0.5 (≈ 0.91 µM) |  |  |  |
| CNC(=N)SCc1ccccc1SC1=C(C(=O)O)N2C(=O)[C@@H](NC(=O)Cc3ccccc3)[C@H]2SC1 [Cmpd 76, (7R)-7-[(Phenylacetyl)amino]-3-(2-N-methylisothiouroniummethylphenylthio)-3-cephem-4-carboxylate, inner salt] | < 0.25 | < 0.25 | > 32 |  | < 0.25 | 32 | 8 | 2 | > 32 | < 0.25 | 1 |  |  |  |
| N=C(N)SCc1ccccc1SC1=C(C(=O)O)N2C(=O)[C@@H](NC(=O)Cc3ccccc3)[C@H]2SC1 [Cmpd 64, (7R)-7-[(Phenylacetyl)amino]-3-(2-isothiouroniummethylphenylthio)-3-cephem-4-carboxylate, inner salt] | < 0.25 | < 0.25 | > 32 |  | < 0.25 | 8 | 4 | 0.5 | > 32 | < 0.25 | 1 |  |  |  |
| CCN=C(NCC)SCc1ccccc1SC1=C(C(=O)O)N2C(=O)[C@@H](NC(=O)Cc3ccccc3)[C@H]2SC1 [Cmpd 74, (7R)-7-[(Phenylacetyl)amino]-3-(2-N,N'-diethylisothiouroniummethylphenylthio)-3-cephem-4-carboxylate, inner salt] | < 0.25 | < 0.25 | > 32 |  | < 0.25 | > 32 | 32 | 2 | > 32 | < 0.25 | 1 |  |  |  |
| O=C(Cc1ccccc1)N[C@@H]1C(=O)N2C(C(=O)O)=C(Sc3ccccc3CSC3=NCCN3)CS[C@H]12 [Cmpd 72] | < 0.25 | < 0.25 | > 32 |  | < 0.25 | 32 (≈ 59.2 µM) | 16 (≈ 29.6 µM) | 2 (≈ 3.7 µM) | > 32 | < 0.25 | 1 (≈ 1.85 µM) |  |  |  |
| CN(C)C(SCc1ccccc1SC1=C(C(=O)[O-])N2C(=O)[C@@H](NC(=O)Cc3ccccc3)[C@H]2SC1)=[N+](C)C [Cmpd 69, (7R)-7-[(Phenylacetyl)amino]-3-(2-tetramethylisothiouroniummethylphenylthio)-3-cephem-4-carboxylate, inner salt] | < 0.25 | < 0.25 | > 32 |  | < 0.25 | 32 | 16 | 2 | > 32 | < 0.25 | 2 |  |  |  |
| Cn1nnnc1SCc1ccccc1SC1=C(C(=O)O)N2C(=O)[C@@H](NC(=O)Cc3ccccc3)[C@H]2SC1 [Cmpd 71] | < 0.25 | < 0.25 | > 32 |  | < 0.25 | > 32 | > 32 | 2 (≈ 3.61 µM) | > 32 | < 0.25 | 1 (≈ 1.8 µM) |  |  |  |
| O=C(Cc1ccccc1)N[C@@H]1C(=O)N2C(C(=O)O)=C(Sc3ccccc3CSc3ncn[nH]3)CS[C@H]12 [Cmpd 67, (7R)-7-[(Phenylacetyl)amino]-3-(2-(1,2,4-triazol-5-ylthiomethyl)phenylthio)-3-cephem-4-carboxylic acid] | < 0.25 | < 0.25 | > 32 |  | < 0.25 | 16 (≈ 29.6 µM) | 16 (≈ 29.6 µM) | 2 (≈ 3.71 µM) | > 32 | < 0.25 | 2 (≈ 3.71 µM) |  |  |  |
| O=C(Cc1ccccc1)N[C@@H]1C(=O)N2C(C(=O)O)=C(Sc3ccccc3CSc3ncccn3)CS[C@H]12 [Cmpd 75] | < 0.25 | < 0.25 | > 32 |  | < 0.25 | > 32 | 32 (≈ 58.1 µM) | 2 (≈ 3.63 µM) | > 32 | < 0.25 | 1 (≈ 1.82 µM) |  |  |  |
| Cc1nnc(SCc2ccccc2SC2=C(C(=O)O)N3C(=O)[C@@H](NC(=O)Cc4ccccc4)[C@H]3SC2)s1 [Cmpd 77] | < 0.25 | < 0.25 | > 32 |  | < 0.25 | > 32 | 32 (≈ 56.1 µM) | 2 (≈ 3.5 µM) | > 32 | < 0.25 | 1 (≈ 1.75 µM) |  |  |  |
| Nc1nc(/C(=N/OCCF)C(=O)N[C@@H]2C(=O)N3C(C(=O)O)=C(Sc4ccnn4-c4ccccc4)CS[C@H]23)cs1 [Cmpd 90, (7R)-7-[(Z)-2-(aminothiazol-4-yl)-2-(2-fluoroethyloxyimino)acetamido]-3-(1-N-phenylpyrazol-5-ylthio)-3-cephem-4-carboxylic acid] |  | 1 (≈ 1.7 µM) | 16 (≈ 27.1 µM) |  |  | 32 (≈ 54.3 µM) | 16 (≈ 27.1 µM) | 16 (≈ 27.1 µM) | 4 (≈ 6.78 µM) |  | 32 (≈ 54.3 µM) | 0.5 (≈ 0.848 µM) | < 0.25 | 1 (≈ 1.7 µM) |
| O=C(Cc1ccccc1)N[C@@H]1C(=O)N2C(C(=O)O)=C(Sc3ccccc3-c3cnco3)CS[C@H]12 [Cmpd 95, (7R)-7-[(Phenylacetyl)amino]-3-(2-oxazol-5-ylphenylthio)-3-cephem-4-carboxylic acid] | < 0.25 | < 0.25 | > 32 |  | < 0.25 | 16 (≈ 32.4 µM) | 8 (≈ 16.2 µM) | 4 (≈ 8.1 µM) | > 32 |  | 4 (≈ 8.1 µM) |  |  |  |
| N=C(NCCN1CCOCC1)SCc1ccc(SC2=C(C(=O)O)N3C(=O)[C@@H](NC(=O)Cc4ccccc4)[C@H]3SC2)c(I)c1 [Cmpd 61, (7R)-7-[(Phenylacetyl)amino]-3-(4-(N-morpholinoethyl)isothiouroniummethyl-2-iodophenylthio)-3-cephem-4-carboxylate, inner salt] |  | 0.5 | > 32 |  |  | > 32 | 16 | 4 | > 32 |  | 4 | < 0.25 | < 0.25 |  |
